Measured values: patent US9566312B2, “Cyclic peptides and use as medicines” (priority 2012, dated 2017)
Starred links: 1 amine or outer side, 2 acyl side, 3 side chain; linkers in the order of their positions; H or OH if unused. Non-standard residues stand in square brackets, D forms with d. Residues, ends and D or L forms follow the SMILES beside them. X48 = C[C@@H](CN1CCN(S(C)(=O)=O)CC1)[C@@H](C(=O)[*:2])N(C)[*:1]; X78 = CC(C)N1CCN(CCOC[C@@H](C)[C@@H](C(=O)[*:2])N(C)[*:1])CC1; X66 = C[C@H](COCC(=O)N1CCN(C)CC1)[C@@H](C(=O)[*:2])N(C)[*:1]; X82 = C[C@H](COCCN1CCOC[C@@H]1C)[C@@H](C(=O)[*:2])N(C)[*:1]; X35 = C[C@H](CN1CCC2(CC1)OCCO2)[C@@H](C(=O)[*:2])N(C)[*:1]; X40 = C[C@H](COCC(=O)N1CCNCC1)[C@@H](C(=O)[*:2])N(C)[*:1]; X67 = C[C@H](CCN1CCOC[C@@H]1C)[C@@H](C(=O)[*:2])N(C)[*:1]; X32 = C[C@H](CN1CC2(COC2)C1)[C@@H](C(=O)[*:2])N(C)[*:1]; MeBmt = C/C=C/C[C@@H](C)[C@@H](O)[C@H](NC)C(=O)O; NMeL = CN[C@@H](CC(C)C)C(=O)O; NMeV = CN[C@H](C(=O)O)C(C)C; dNMeA = CN[C@H](C)C(=O)O; Abu = CC[C@H](N)C(=O)O

Columns and labels:
cyclophilin B (CypB) = cyclophilin B (CypB) (Homo sapiens (Human), UniProt P23284); assay: Inhibitor binding to cyclophilin proteins by SPR, CypB; design: unit not given here; details: 1:1 binding model
cyclophilin B (CypB), sequence (P23284 34-216): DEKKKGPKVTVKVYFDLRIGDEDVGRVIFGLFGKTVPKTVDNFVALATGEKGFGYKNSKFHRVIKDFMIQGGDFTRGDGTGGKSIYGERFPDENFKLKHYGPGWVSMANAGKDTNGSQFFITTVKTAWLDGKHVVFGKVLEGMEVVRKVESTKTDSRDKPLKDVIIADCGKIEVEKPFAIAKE
Protocol: (§1) Method 1: Measuring Inhibitor Binding to Cyclophilin Proteins
(§2) Binding of inhibitors to expressed cyclophilins was determined using surface plasmon resonance (SPR) experiments. Briefly, avi-tagged cyclophilin proteins with mono-biotinylation were immobilized onto a Biotin CAPture chip (GE Healthcare, cat. #28920234). SPR experiments were carried out on an upgraded Biacore T200 system using a running buffer containing the inhibitor, 10 mM HEPES, pH 7.4, 150 mM NaCl, 0.05% P20, and 3% DMSO. Single-cycle kinetics measurements were used to study the interactions between cyclophilin inhibitors and different cyclophlins. Accordingly, compound at various concentrations was injected to the flow cells with a contact time of 1 min each at a flow rate of 50 μL/min. The final dissociation phase lasts for 10 min following the sample injection. Data was analyzed using Biacore T200 Evaluation Software Version 1.0 and a 1:1 binding model was applied to fit the data to obtain kon, koff, and KD.

[1] = target: organic anion transporting polypeptide 1B1 (OATP1B1) (Homo sapiens (Human), UniProt Q9Y6L6); assay: OATP assay in CHO-OATP1B1 cells;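 also: inhibition of probe substrate uptake into the cells, ten minutes exposure, accumulated substrate read by fluorescence once cells were lysed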
organic anion transporting polypeptide 1B1 (OATP1B1), sequence (Q9Y6L6 whole entry): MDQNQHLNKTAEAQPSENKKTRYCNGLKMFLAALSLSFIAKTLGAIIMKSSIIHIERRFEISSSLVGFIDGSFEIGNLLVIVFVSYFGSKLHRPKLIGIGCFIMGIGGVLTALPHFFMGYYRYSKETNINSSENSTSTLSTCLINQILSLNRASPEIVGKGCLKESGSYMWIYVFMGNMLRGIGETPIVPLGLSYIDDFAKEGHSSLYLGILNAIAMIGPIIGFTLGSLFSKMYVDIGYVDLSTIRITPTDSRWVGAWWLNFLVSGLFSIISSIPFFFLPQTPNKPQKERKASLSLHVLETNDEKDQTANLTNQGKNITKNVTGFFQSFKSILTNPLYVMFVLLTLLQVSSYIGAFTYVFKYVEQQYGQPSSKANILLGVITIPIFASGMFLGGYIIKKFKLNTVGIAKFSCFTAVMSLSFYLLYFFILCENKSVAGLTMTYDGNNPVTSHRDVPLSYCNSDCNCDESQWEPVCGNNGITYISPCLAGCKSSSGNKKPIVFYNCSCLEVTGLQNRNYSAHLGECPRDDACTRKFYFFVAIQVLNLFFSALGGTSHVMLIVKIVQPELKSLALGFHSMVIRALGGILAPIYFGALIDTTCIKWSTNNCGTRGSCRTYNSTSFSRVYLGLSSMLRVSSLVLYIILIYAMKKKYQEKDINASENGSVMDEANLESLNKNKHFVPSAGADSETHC
Protocol: In order to determine whether the compounds of the present invention interact with hepatic transporters, experiments were carried out that compared the concentration-dependent inhibition toward the organic anion transporting polypeptide 1B1 (OATP1B1) and the multidrug resistance associated protein 2 (MRP2).
The cells were cultured in DMEM/F12 +10% FBS+2 mM Ala-Gln+1% Pen-Strep for a period of two days, and the media was changed one day post-seeding. Prior to the assay, media was aspirated and were washed −3× with HBSS+10 mM HEPES and the solution was equilibrated for 15 min in HBSS+10 mM HEPES. Solutions containing the inhibitor were prepared in HBSS+10 mM HEPES (up to 1% DMSO). […] After 10 min, the substrate or substrate/inhibitor solution was aspirated and the cells were washed 3× with HBSS+10 mM HEPES. The amount of the transported probe substrate was determined by fluorescent photometry after cell lysis, and the IC50 was derived from the concentration-response curve.

[2] = tested on: peripheral blood mononuclear cells (PBMC); assay: Anti-proliferative or immunosuppressive activity, BrdU incorporation in PHA-stimulated PBMC; type: cell-based; details: PHA 3 μg/ml, 60 hour compound treatment; read-out: EMV PBMC IC50
Protocol: Method 3: Measuring Anti-Proliferative or Immunosuppressive Activity
The potential anti-proliferative activity of compounds on T-cells was analyzed based on the amount of bromodesoxy uridine (BrdU) incorporated into DNA of fresh peripheral blood mononuclear cells (PBMC) using the BrdU ELISA kit (Roche). The assay is performed in 96-well plate format with 30,000 PBMCs seeded per well in X-VIVO 15 medium (Lonza). T-cell proliferation was stimulated by addition of 3 μg/ml phytohemagglutinin (PHA) in PBMCs obtained from two donors.

cyclophilin A (CypA) = cyclophilin A (CypA) (Homo sapiens (Human), UniProt P62937); assay: Inhibitor binding to cyclophilin proteins by SPR, CypA; design: unit not given here; details: 1:1 binding model
cyclophilin A (CypA), sequence (P62937 whole entry): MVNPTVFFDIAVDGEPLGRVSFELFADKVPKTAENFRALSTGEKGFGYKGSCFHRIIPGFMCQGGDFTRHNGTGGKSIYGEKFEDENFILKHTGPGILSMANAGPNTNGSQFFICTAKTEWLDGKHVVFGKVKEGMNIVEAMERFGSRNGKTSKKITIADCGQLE

[3] = tested on: genotype 1b subgenomic HCV replicon in Huh7.5 cells; type: cell-based, hepatitis C virus; details: genotype 1b replicon, 72 h incubation; read-out: RPLN-1b IC50
Protocol: Method 2: Measuring Inhibitory Effects in a HCV Replicon System
Susceptibility to compounds was analyzed in Huh7.5 cells containing genotype 1a or 1b subgenomic HCV replicons co-expressing a luciferase reporter gene. The original replicons, pFK389lucubineo_3_3′_ET and pH/SG-Neo(L+I), were licensed from ReBlicon GmbH (Germany) and Apath LLC (Saint Louis, Mo.), respectively. The firefly reporter gen was replaced by renilla luciferase reporter gene using standard molecular biology techniques as follows.
Generation of genotype 1b subgenomic replicon: The renilla […]-neomycin phosphotransferase cassette was amplified from pF9 cytomegalovirus (CMV) hRluc-Neo Flexi(R) (Promega) by PCR using Accuprime super mix II (Invitrogen) and a primer set of Ascl hRlucNeo Fwd and NotI hRluc Rev. These two primers have the following sequences and introduce restriction sites for subsequent cloning: Ascl hRlucNeo Fwd, 5 […] 3(Ascl site underlined) (SEQ. ID No. 1), and NotI hRluc Rev, 5[…] 3(NotI site underlined) (SEQ ID No. 2). The amplification product was subcloned into pCR2.1-TOPO (Invitrogen). The resulting plasmid was digested with Ascl and NotI, and the excised fragment (hRluc-Neo) was ligated with the Roche Quick Ligation Kit (Roche) into pFK1389lucubineo_3_3′_ET digested with the same enzymes.
The assay medium for both, luciferase reporter HCV replicon and cytotoxicity assays contains phenol red-free DMEM and lacks G418. […] Luciferase activity of compound treated cells is measured relative to DMSO treated cells after 72 h incubation using Renilla-Glo™ Luciferase Assay (Promega). Cytotoxicity (CC50) is analyzed using Cell Titer-Glo™ (Promega).

CypF = CypF (Homo sapiens (Human), UniProt P30405); assay: Inhibitor binding to cyclophilin proteins by SPR, CypF; details: 1:1 binding model
CypF, sequence (P30405 30-207): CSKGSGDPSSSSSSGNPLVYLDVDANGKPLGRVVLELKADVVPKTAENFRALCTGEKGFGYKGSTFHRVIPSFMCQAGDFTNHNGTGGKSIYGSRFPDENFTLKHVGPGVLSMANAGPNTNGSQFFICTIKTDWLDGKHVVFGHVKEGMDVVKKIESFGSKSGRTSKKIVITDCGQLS
Protocol: as §1, §2

SMILES	CypB Kd (cyclophilin B (CypB))	IC50 [1] [nM]	IC50 [2] [nM]	CypA Kd (cyclophilin A (CypA))	IC50 [3] [nM]	CypF Kd (CypF) [nM]
C/C=C/C[C@@H](C)[C@@H](O)[C@H]1C(=O)N[C@@H](CC)C(=O)N(C)[C@H](C)C(=O)N(C)[C@@H]([C@@H](C)CN2CCN(S(C)(=O)=O)CC2)C(=O)N[C@@H](C(C)C)C(=O)N(C)[C@@H](CC(C)C)C(=O)N[C@@H](C)C(=O)N[C@H](C)C(=O)N(C)[C@@H](CC(C)C)C(=O)N(C)[C@@H](CC(C)C)C(=O)N(C)[C@@H](C(C)C)C(=O)N1C [Compound 2.17.9, 3-[D-Ala]-4-[(2S,3S)-3-methyl-2-(methylamino)-4-(4-(methylsulfonyl)piperazin-1-yl)butanoyl]-cyclosporin] (cyclo(A[dA][NMeL][NMeL][NMeV][MeBmt][Abu][dNMeA][X48]V[NMeL]))	0.6	400	31900	0.9	23	0.5
C/C=C/C[C@@H](C)[C@@H](O)[C@H]1C(=O)N[C@@H](CC)C(=O)N(C)[C@H](C)C(=O)N(C)[C@@H]([C@H](C)COCCN2CCN(C(C)C)CC2)C(=O)N[C@@H](C(C)C)C(=O)N(C)[C@@H](CC(C)C)C(=O)N[C@@H](C)C(=O)N[C@H](C)C(=O)N(C)[C@@H](CC(C)C)C(=O)N(C)[C@@H](CC(C)C)C(=O)N(C)[C@@H](C(C)C)C(=O)N1C [Compound 2.8.5, 3-[D-Ala]-4-[(2S,3S)-4-(2-(4-isopropylpiperazin-1-yl)ethoxy)-3-methyl-2-(methylamino)butanoyl]-cyclosporin] (cyclo(A[dA][NMeL][NMeL][NMeV][MeBmt][Abu][dNMeA][X78]V[NMeL]))	0.5	4400	8100	0.6	98.9	0.4
C/C=C/C[C@@H](C)[C@@H](O)[C@H]1C(=O)N[C@@H](CC)C(=O)N(C)[C@H](C)C(=O)N(C)[C@@H]([C@H](C)CN2CC3(COC3)C2)C(=O)N[C@@H](C(C)C)C(=O)N(C)[C@@H](CC(C)C)C(=O)N[C@@H](C)C(=O)N[C@H](C)C(=O)N(C)[C@@H](CC(C)C)C(=O)N(C)[C@@H](CC(C)C)C(=O)N(C)[C@@H](C(C)C)C(=O)N1C [Compound 2.5.16, 3-[D-Ala]-4-[(2S,3R)-3-methyl-2-(methylamino)-4-(2-oxa-6-azaspiro[3.3]heptan-6-yl)butanoyl]-cyclosporin] (cyclo(A[dA][NMeL][NMeL][NMeV][MeBmt][Abu][dNMeA][X32]V[NMeL]))	0.7	3400	18000	1.4	10	0.7
C/C=C/C[C@@H](C)[C@@H](O)[C@H]1C(=O)N[C@@H](CC)C(=O)N(C)[C@H](C)C(=O)N(C)[C@@H]([C@H](C)CCN2CCOC[C@@H]2C)C(=O)N[C@@H](C(C)C)C(=O)N(C)[C@@H](CC(C)C)C(=O)N[C@@H](C)C(=O)N[C@H](C)C(=O)N(C)[C@@H](CC(C)C)C(=O)N(C)[C@@H](CC(C)C)C(=O)N(C)[C@@H](C(C)C)C(=O)N1C [Compound 2.18.4] (cyclo(A[dA][NMeL][NMeL][NMeV][MeBmt][Abu][dNMeA][X67]V[NMeL]))	0.7	1700	10600	1.2	44	0.7
C/C=C/C[C@@H](C)[C@@H](O)[C@H]1C(=O)N[C@@H](CC)C(=O)N(C)[C@H](C)C(=O)N(C)[C@@H]([C@H](C)CN2CCC3(CC2)OCCO3)C(=O)N[C@@H](C(C)C)C(=O)N(C)[C@@H](CC(C)C)C(=O)N[C@@H](C)C(=O)N[C@H](C)C(=O)N(C)[C@@H](CC(C)C)C(=O)N(C)[C@@H](CC(C)C)C(=O)N(C)[C@@H](C(C)C)C(=O)N1C [Compound 2.5.28, 3-[D-Ala]-4-[(2S,3R)-3-methyl-2-(methylamino)-4-(1,4-dioxa-8-azaspiro[4.5]decan-8-yl)butanoyl]-cyclosporin] (cyclo(A[dA][NMeL][NMeL][NMeV][MeBmt][Abu][dNMeA][X35]V[NMeL]))	0.8	2100	6100	1.4	17	0.8
C/C=C/C[C@@H](C)[C@@H](O)[C@H]1C(=O)N[C@@H](CC)C(=O)N(C)[C@H](C)C(=O)N(C)[C@@H]([C@H](C)COCCN2CCOC[C@@H]2C)C(=O)N[C@@H](C(C)C)C(=O)N(C)[C@@H](CC(C)C)C(=O)N[C@@H](C)C(=O)N[C@H](C)C(=O)N(C)[C@@H](CC(C)C)C(=O)N(C)[C@@H](CC(C)C)C(=O)N(C)[C@@H](C(C)C)C(=O)N1C [Compound 2.8.6, 3-[D-Ala]-4-[(2S,3S)-3-methyl-2-(methylamino)-4-(2-((S)-3-methylmorpholino)ethoxy)butanoyl]-cyclosporin] (cyclo(A[dA][NMeL][NMeL][NMeV][MeBmt][Abu][dNMeA][X82]V[NMeL]))	0.9	4800		1.3	13	0.8
C/C=C/C[C@@H](C)[C@@H](O)[C@H]1C(=O)N[C@@H](CC)C(=O)N(C)[C@H](CC)C(=O)N(C)[C@@H]([C@H](C)COC)C(=O)N[C@@H](C(C)C)C(=O)N(C)[C@@H](CC(C)C)C(=O)N[C@@H](C)C(=O)N[C@H](C)C(=O)N(C)[C@@H](CC(C)C)C(=O)N(C)[C@@H](CC(C)C)C(=O)N(C)[C@@H](C(C)C)C(=O)N1C [Compound 3.1, 3-[(R)-2-(methylamino)butanoic acid]-4-[(2S,3S)-4-methoxy-3-methyl-2-(methylamino)butanoyl]-cyclosporin]	1.6	2100		3.4		1.9
C/C=C/C[C@@H](C)[C@@H](O)[C@H]1C(=O)N[C@@H](CC)C(=O)N(C)[C@H](C)C(=O)N(C)[C@@H]([C@H](C)COCC(=O)N2CCNCC2)C(=O)N[C@@H](C(C)C)C(=O)N(C)[C@@H](CC(C)C)C(=O)N[C@@H](C)C(=O)N[C@H](C)C(=O)N(C)[C@@H](CC(C)C)C(=O)N(C)[C@@H](CC(C)C)C(=O)N(C)[C@@H](C(C)C)C(=O)N1C [Compound 2.6.1, 3-[D-Ala]-4-[(2S,3S)-3-methyl-2-(methylamino)-4-(2-oxo-2-(piperazin-1-yl)ethoxy)butanoyl]-cyclosporin] (cyclo(A[dA][NMeL][NMeL][NMeV][MeBmt][Abu][dNMeA][X40]V[NMeL]))	0.7	6900		1.0		0.4
C/C=C/C[C@@H](C)[C@@H](O)[C@H]1C(=O)N[C@@H](CC)C(=O)N(C)[C@H](C)C(=O)N(C)[C@@H]([C@H](C)COCC(=O)N2CCN(C)CC2)C(=O)N[C@@H](C(C)C)C(=O)N(C)[C@@H](CC(C)C)C(=O)N[C@@H](C)C(=O)N[C@H](C)C(=O)N(C)[C@@H](CC(C)C)C(=O)N(C)[C@@H](CC(C)C)C(=O)N(C)[C@@H](C(C)C)C(=O)N1C [Compound 2.6.3, 3-[D-Ala]-4-[(2S,3S)-3-methyl-2-(methylamino)-4-(2-(4-methylpiperazin-1-yl)-2-oxoethoxy)butanoyl]-cyclosporin] (cyclo(A[dA][NMeL][NMeL][NMeV][MeBmt][Abu][dNMeA][X66]V[NMeL]))	0.8	9400		1.5		0.5
